Results reported in patent US9707126B2, “Systems and methods for corneal cross-linking with pulsed light” (Avedro, Inc., priority 2009, dated 2017).
Entries after “also recorded” stand apart in the source; their conditions may differ.

Experiments:
[1] = Absorbance of Riboflavin before and after UVA irradiation (FIG. 3); assay type: physicochemical; settings: 0.2 mm light path
Description: Referring now to FIG. 3, a graph illustrating absorbance for 0.2 mm light path of an initial sample of Riboflavin versus absorbance for 0.2 mm light path of reduced Riboflavin RfH2 after being irradiated for 3 minutes at an irradiance of 30 mW/cm^2. At a wavelength of 445 nm, the absorbance of the initial sample is about 0.543, while the absorbance of the irradiated sample is about 0.340.

porcine corneal flaps = assay: Fluorescence of papain-digested corneal flaps treated with RFH2 solutions (Example 1)
Description: RFH2 was prepared by irradiation of Riboflavin solutions (with and without EDTA, 1% EDTA, 0.1% Riboflavin) and saturated with argon (to displace oxygen) in a shallow sealed quartz cuvette. Then, in the absence of additional UV light, porcine corneal flaps were immediately placed in those solutions. After 1-2 min this procedure was repeated with a fresh solution containing RFH2 several times. Corneal flaps then were washed with distilled water, digested with papain buffer, and their fluorescence was measured.

porcine cornea [2] = assay: Cross-linking measured by fluorescence of digested corneal flaps at 450 nm (Example 5); settings: 0.1% Riboflavin, humid oxygenated environment with pulsed UV light 30 mW/cm^2, 1.5 seconds on/3 seconds off, 9 minutes
Description: Pig eyes from an abattoir (SiouxPreme, Sioux City, Iowa) were rinsed in saline. Eyes were cleaned and the epithelium was removed. Eyes were placed on a stand in the middle of a large beaker filled part way with water with a tube bubbling compressed oxygen into the water. The oxygen was turned on at certain times during the experiment to create a humid oxygenated environment for the eye. Eyes were soaked for 20 minutes with 0.1% Riboflavin, dH2O solution in an incubator set at 37° C. by using a rubber ring to hold the solution on top. Corneas were pan-corneally irradiated with a top hat beam (3% root mean square) for a determined amount of time and irradiance (3 minutes CW at 30 mW/cm^2 with one drop of solution added every 30 seconds, or 30 minutes CW at 3 mW/cm^2 with one drop of solution added every minute, or 9 minutes for pulsed light—1.5 seconds on/3 seconds off—using a shutter system (Lambda SC Smart Shutter, Sutter Instrument, Novato, Calif.) at 30 mW/cm^2 with one drop of solution added every minute) with a 365-nm light source (UV LED NCSU033B[T]; Nichia Co., Tokushima, Japan). The irradiance was measured with a power sensor (model PD-300-UV; Ophir, Inc., Jerusalem, Israel) at the corneal surface. […]
FIG. 7A illustrates a graph of the amount of cross-linking measured by fluorescence of the digested corneal flaps at 450 nm. […]

porcine cornea [3] = assay: Fluorescence of digested 200 μm corneal flaps, continuous wave versus pulsed illumination (Example 4); settings: for fluorescence at 455 nm: 0.1% Riboflavin, 200 μm flap
Description: In another corroborating experiment porcine whole globes (SiouxPreme Packing Co., Sioux City, Iowa; shipped in saline solution packed in ice) were warmed to room temperature (25 C). The corneas were then de-epithelialized with a dulled scalpel blade and 0.1, Riboflavin solution in 0.9% saline was applied to the top of each cornea during 20 minutes before cross-linking in an incubator. Corneas were pan-corneally irradiated with a top hat beam (3% root mean square) for a determined amount of time with 365-nm light source (UV LED NCSU033B[T]; Nichia Co., Tokushima, Japan) at the chosen irradiance of 30 mW/cm^2 with either continuous wave illumination or pulsed illumination 3 seconds on/3 Seconds off. Corneal flaps (200 μm thick) were excised from the eyes with aid of Intralase femtosecond laser (Abbott Medical Optics, Santa Ana, Calif.). The average thickness of the corneal flaps was calculated as a difference between the measurements before and after the excision from the eyes with an ultrasonic Pachymeter (DGH Technology, Exton, Pa.).
The flaps were washed with distilled water until Riboflavin in the washing waters was not detectable by absorbance measurement at 455 nm (Thermo Scientific Evolution 300/600 UV-Vis Spectrophotometer, Thermo Fisher Scientific, Waltham, Mass.). […] Papain digests were centrifuged for 30 seconds at 2200×G (Mini centrifuge 05-090-100, Fisher Scientific), diluted 3 times with 1×PBS solution and fluorescence of the solutions was measured with excitation of λex=360 nm in a QM-40 Spectrofluorometer (Photon Technology Int., London, Ontario, Canada).
The fluorescence of the papain buffer was taken into account by measuring fluorescence in the absence of tissue and subtracting this value from the fluorescence of the samples. The results seen below corroborate that the amount of fluorescence seen which is directly related to the amount of cross-linking is greater for the pulsed vs. continuous wave illumination in nearly the same proportion as the biomechanical measurements taken of the same flaps.

porcine cornea [4] = assay: Collagen linked fluorescence in cross-linked corneal flaps at depths of 100 μm and 200 μm (Example 2)
Description: Porcine whole globes (SiouxPreme Packing Co., Sioux City, Iowa; shipped in saline solution packed in ice) were warmed to room temperature (25° C.). The corneas were then de-epithelialized with a dulled scalpel blade and 0.1, 0.25, or 0.5% riboflavin solution in 0.9% saline was applied to the top of each cornea during 20 minutes before cross-linking Corneas were pan-corneally irradiated with a top hat beam (3% root mean square) for a determined amount of time with 365-nm light source (UV LED NCSU033B[T]; Nichia Co., Tokushima, Japan) at the chosen irradiance (3 or 30 mW/cm^2) which was measured with a power sensor (model PD-300-UV; Ophir, Inc., Jerusalem, Israel) at the corneal surface.
Corneal flaps (each 100 μm thick, one after another) were excised from the eyes with aid of Intralase femtosecond laser (Abbott Medical Optics, Santa Ana, Calif.). The average thickness of the corneal flaps was calculated as a difference between the measurements before and after the excision from the eyes with an ultrasonic Pachymeter (DGH Technology, Exton, Pa.). The flaps were washed with distilled water until Riboflavin in the washing waters was not detectable by absorbance measurement at 455 nm (Thermo Scientific Evolution 300/600 UV-Vis Spectrophotometer, Thermo Fisher Scientific, Waltham, Mass.). […]

porcine cornea [5] = assay: Force versus displacement of cross-linked corneal flaps, biaxial materials tester (Example 3)
Description: Upon arrival, porcine eyes have excess muscle tissue that was removed and placed in saline in the incubator (set to 37° C.) for 30 minutes. […] Eyes were removed from solution and physiological IOP was applied. Eyes were then placed under a UVA source and shutter system and irradiated according to the indicated protocol as shown in FIGS. 5A-5C. Riboflavin drops were applied every 1.5 minutes during UVA application. After being irradiated, the corneal thickness was measured with a pachymeter. The sample was then placed under the femto second laser and a ˜200 μm flap was cut. The flap was positioned in a biaxial materials tester (CS-BIO TESTER 5000, CellScale, Waterloo, ON Canada) and stretched until failure. The sample was then rinsed with distilled water and frozen for future papain digestion and fluorescence analysis.

Row | absorbance at 445 nm ([1]; after irradiation for 3 minutes at 30 mW/cm^2) | absorbance at 445 nm ([1]; initial sample) | biomechanical stiffness (FIG. 5C) (porcine cornea [5]; 0.1% Riboflavin, 30 mW/cm^2 pulsed 3 seconds on/4.5 seconds off and 3 seconds on/3 seconds off) | biomechanical stiffness (FIG. 7B) (porcine cornea [5]; 3 mW/cm^2 and 30 mW/cm^2 continuous wave illumination, versus pulsed with oxygen) | biomechanical stiffness (FIG. 5C) (porcine cornea [5]; 30 mW/cm^2 pulsed, 3 seconds on, 1.5, 0.75 and 0.25 seconds off (samples 5, 6, 7)) | biomechanical stiffness (FIG. 5C) (porcine cornea [5]; sample 1: 0.1% Riboflavin, 3 mW/cm^2 continuous wave) | biomechanical stiffness (FIG. 5A) (porcine cornea [5]; sample 2: 0.25% Riboflavin, 3 mW/cm^2 continuous wave vs. sample 3 at 30 mW/cm^2, 5.4 J/cm^2) | biomechanical stiffness (FIG. 7B) (porcine cornea [5]; sample 3: 30 mW/cm^2 pulsed light with oxygen, 3 seconds on/3 seconds off) | biomechanical stiffness (FIG. 5A) (porcine cornea [5]; sample 8: 0.1% Riboflavin, 30 mW/cm^2 pulsed 3 seconds on/3 seconds off) | SMILES | fluorescence of corneal samples (porcine corneal flaps; Riboflavin solution irradiated with a reducing agent, EDTA (1% EDTA, 0.1% Riboflavin)) | fluorescence of corneal samples versus samples washed with unexposed Riboflavin (porcine corneal flaps; preliminary UVA-exposed Riboflavin solutions, no further UV light) | amount of cross-linking by fluorescence of digested flaps at 450 nm (FIG. 7A) (porcine cornea [2]) | fluorescence at 455 nm (porcine cornea [3]; 30 mW/cm^2 continuous illumination) | fluorescence at 455 nm (porcine cornea [3]; 30 mW/cm^2 pulsed light 3 seconds on/3 seconds off) | fluorescence at 455 nm, continuous less than pulsed (porcine cornea [3]; 30 mW/cm^2 continuous versus pulsed 3 seconds on/3 seconds off) | corneal fluorescence at first 100 μm versus next 100 μm (porcine cornea [4]; 0.1, 0.25 or 0.5% Riboflavin, 3 or 30 mW/cm^2, dose 5.4 J/cm^2) | corneal fluorescence relative to non-cross-linked samples (porcine cornea [4]; first 100 μm, 0.1% Riboflavin solution, 3 mW/cm^2, dose 5.4 J/cm^2) | biomechanical stiffness (FIG. 5C) (porcine cornea [5]; 0.25% Riboflavin, 3 mW/cm^2 continuous wave) | biomechanical stiffness (FIG. 5B) (porcine cornea [5]; sample 2: 0.1% Riboflavin, 30 mW/cm^2 pulsed, 4.5 second exposure cycles, 3 seconds off) | biomechanical stiffness (FIG. 5A) (porcine cornea [5]; sample 5: 30 mW/cm^2 continuous wave, total 35.1 J/cm^2 dose)
1 | about 0.340 |  |  |  |  |  |  |  |  | Cc1cc2c(cc1C)N(C[C@H](O)[C@H](O)[C@H](O)CO)c1[nH]c(=O)[nH]c(=O)c1N2 [RfH2, Leuco-Deuteroflavin] | highest | higher |  |  |  |  |  |  |  |  | 
2 |  | about 0.543 | slightly lower biomechanical stiffness | lower biomechanical stiffness | in descending order | highest biomechanical stiffness | dissimilar biomechanical stiffness | highest biomechanical stiffness | higher than both the samples 6 and 7 | Cc1cc2nc3c(=O)[nH]c(=O)nc-3n(C[C@H](O)[C@H](O)[C@H](O)CO)c2cc1C [Riboflavin] |  |  | greatly increases the amount of cross-linking | about 12000 counts/s | about 20,000 counts/s | about 40% | greater at first 100 μm than at the next 100 μm | highest corneal fluorescence | lowest biomechanical stiffness out of samples 1 and 3-7 | slightly lower biomechanical stiffness than samples 3 or 1 | higher than that for samples 6, 7, 3, 4, and 1; also recorded: lower than that for sample 2
